Measured values: US20230183292A1, “IMMUNOMODULATORS” (priority 2020, published 2023)
Read-outs that look alike come from different tables or passages of the source. Starred links: 1 amine or outer side, 2 acyl side, 3 side chain; linkers in the order of their positions; H or OH if unused. Positions of bridges follow the written chain, without caps; N, C: chain ends. Non-standard residues stand in square brackets, D forms with d. Residues, ends and D or L forms follow the SMILES beside them. *: point of attachment. X2 = C[C@H](CCC(=O)NCCCN(CCCCNC(=O)CC[C@@H](C)[C@@H]1CC[C@H]2[C@@H]3[C@H](O)C[C@@H]4C[C@H](O)CC[C@]4(C)[C@H]3C[C@H](O)[C@@]21C)*)[C@H]1CC[C@H]2[C@@H]3[C@H](O)C[C@@H]4C[C@H](O)CC[C@]4(C)[C@H]3C[C@H](O)[C@]12C; X15 = C[C@H](CCC(=O)NCCCCNc1c(*)c(=O)c1=O)[C@H]1CC[C@H]2[C@@H]3[C@H](O)C[C@@H]4C[C@H](O)CC[C@]4(C)[C@H]3C[C@H](O)[C@]12C; X20 = CC(C)CCC[C@@H](C)[C@H]1CC[C@H]2[C@@H]3CC[C@H]4C[C@H](NC[C@H](N[*:1])C(=O)[*:2])CC[C@]4(C)[C@H]3CC[C@]12C; X5 = CC(C)CCC[C@@H](C)[C@H]1CC[C@H]2[C@@H]3CC[C@H]4C[C@@H](NC[C@H](N[*:1])C(=O)[*:2])CC[C@]4(C)[C@H]3CC[C@]12C; X17 = C[C@H](CCC(=O)O)[C@H]1CC[C@H]2[C@@H]3CC[C@@H]4CC(NC[C@H](N[*:1])C(=O)[*:2])CC[C@]4(C)[C@H]3CC[C@]12C; Cholyl = C[C@H](CCC(=O)*)[C@H]1CC[C@H]2[C@@H]3[C@H](O)C[C@@H]4C[C@H](O)CC[C@]4(C)[C@H]3C[C@H](O)[C@]12C; Trp(1-CH2CO) = O=C([C@H](Cc1cn(CC(=O)[*:3])c2ccccc12)N[*:1])[*:2]; Trp(1-CH2COOH) = N[C@@H](Cc1cn(CC(=O)O)c2ccccc12)C(=O)O; Hyp = O=C(O)[C@@H]1C[C@@H](O)CN1; X12 = O=c1c([*:1])c([*:2])c1=O; NMeNle = CCCC[C@H](NC)C(=O)O; NMeA = CN[C@@H](C)C(=O)O; Dab = NCC[C@H](N)C(=O)O; Dap = NC[C@H](N)C(=O)O

Target: T1, PD-1/PD-L1 (Homo sapiens, UniProt Q9NZQ7)
T1 construct: TVMV protease site (C); made in house; host or cells: HEK293T cells
Experiment: PD-1/PD-L1 Homogenous Time-Resolved Fluorescence (HTRF) binding assay
Details: PD-1-Ig 20 nM
Outline: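 Inhibitors pre-incubated 15 min with PD-L1-His (10 nM final) in dPBS, 0.1% BSA, 0.05% Tween-20, then 15 min with PD-1-Ig (20 nM final). Eu-cryptate anti-Ig (1 nM) and APC anti-His (20 nM) added, 30 min equilibration; HTRF 665/620 nm ratio. Human ECD proteins from HEK293T.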

[1] = PD-L1-His 10 nM, read-out: HTRF IC50

T1 sequence (Q9NZQ7 18-239): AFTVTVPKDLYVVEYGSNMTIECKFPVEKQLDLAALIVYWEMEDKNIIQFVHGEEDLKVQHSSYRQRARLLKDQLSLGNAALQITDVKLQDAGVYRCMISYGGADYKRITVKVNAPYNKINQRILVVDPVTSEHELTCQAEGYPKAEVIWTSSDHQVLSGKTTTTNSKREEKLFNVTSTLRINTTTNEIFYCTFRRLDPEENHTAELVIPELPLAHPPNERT

Compound	IC50 [1]	IC50 (HTRF IC50, PD-L1-His 10 nM)
CCCC[C@H]1C(=O)N(C)[C@@H](CCCC)C(=O)N[C@@H](CC(C)C)C(=O)N[C@H](C(=O)NCC(N)=O)CSCC(=O)N[C@@H](Cc2ccc(O)cc2)C(=O)N(C)[C@@H](C)C(=O)N[C@@H](CC(N)=O)C(=O)N2CCC[C@H]2C(=O)N[C@@H](CNC2CC[C@@]3(C)[C@H](CC[C@@H]4[C@@H]3CC[C@]3(C)[C@@H]([C@H](C)CCC(=O)O)CC[C@@H]43)C2)C(=O)N[C@@H](CC(C)C)C(=O)N2C[C@H](O)C[C@H]2C(=O)N[C@@H](Cc2c[nH]c3ccccc23)C(=O)N[C@@H](CCN)C(=O)N[C@@H](Cc2cn(CC(=O)O)c3ccccc23)C(=O)N1C (stereo partly drawn) [Example 3007] ({CH2CO}-Y[NMeA]NP[X17]L[Hyp]W[Dab][Trp(1-CH2COOH)][NMeNle][NMeNle]LCG-NH2; thioether N-14)	12 nM	
CCCC[C@H]1C(=O)N(C)[C@@H](CCCC)C(=O)N[C@@H](CC(C)C)C(=O)N[C@H](C(=O)NCC(N)=O)CSCC(=O)N[C@@H](Cc2ccc(O)cc2)C(=O)N(C)[C@@H](C)C(=O)N[C@@H](CC(N)=O)C(=O)N2CCC[C@H]2C(=O)N[C@@H](CN[C@H]2CC[C@@]3(C)[C@@H](CC[C@@H]4[C@@H]3CC[C@]3(C)[C@@H]([C@H](C)CCCC(C)C)CC[C@@H]43)C2)C(=O)N[C@@H](CC(C)C)C(=O)N2C[C@H](O)C[C@H]2C(=O)N[C@@H](Cc2c[nH]c3ccccc23)C(=O)N[C@@H](CCN)C(=O)N[C@@H](Cc2cn(CC(=O)O)c3ccccc23)C(=O)N1C [Example 3008] ({CH2CO}-Y[NMeA]NP[X5]L[Hyp]W[Dab][Trp(1-CH2COOH)][NMeNle][NMeNle]LCG-NH2; thioether N-14)	91 nM	
CCCC[C@H]1C(=O)N(C)[C@@H](CCCC)C(=O)N[C@@H](CC(C)C)C(=O)N[C@H](C(=O)NCC(N)=O)CSCC(=O)N[C@@H](Cc2ccc(O)cc2)C(=O)N(C)[C@@H](C)C(=O)N[C@@H](CC(N)=O)C(=O)N2CCC[C@H]2C(=O)N[C@@H](CN[C@@H]2CC[C@@]3(C)[C@@H](CC[C@@H]4[C@@H]3CC[C@]3(C)[C@@H]([C@H](C)CCCC(C)C)CC[C@@H]43)C2)C(=O)N[C@@H](CC(C)C)C(=O)N2C[C@H](O)C[C@H]2C(=O)N[C@@H](Cc2c[nH]c3ccccc23)C(=O)N[C@@H](CCN)C(=O)N[C@@H](Cc2cn(CC(=O)O)c3ccccc23)C(=O)N1C [Example 3009] ({CH2CO}-Y[NMeA]NP[X20]L[Hyp]W[Dab][Trp(1-CH2COOH)][NMeNle][NMeNle]LCG-NH2; thioether N-14)		130 nM
CCCC[C@H]1C(=O)N(C)[C@@H](CCCC)C(=O)N[C@@H](CC(C)C)C(=O)N[C@H](C(=O)NCC(N)=O)CSCC(=O)N[C@@H](Cc2ccc(O)cc2)C(=O)N(C)[C@@H](C)C(=O)N[C@@H](CC(N)=O)C(=O)N2CCC[C@H]2C(=O)N[C@@H](CNc2c(NCCCCNC(=O)CC[C@@H](C)[C@H]3CC[C@H]4[C@@H]5[C@H](O)C[C@@H]6C[C@H](O)CC[C@]6(C)[C@H]5C[C@H](O)[C@]34C)c(=O)c2=O)C(=O)N[C@@H](CC(C)C)C(=O)N2C[C@H](O)C[C@H]2C(=O)N[C@@H](Cc2c[nH]c3ccccc23)C(=O)N[C@@H](CCNc2c(NCCCCNC(=O)CC[C@@H](C)[C@H]3CC[C@H]4[C@@H]5[C@H](O)C[C@@H]6C[C@H](O)CC[C@]6(C)[C@H]5C[C@H](O)[C@]34C)c(=O)c2=O)C(=O)N[C@@H](Cc2cn(CC(=O)O)c3ccccc23)C(=O)N1C [Example 5001] ({CH2CO}-Y[NMeA]NP[Dap](X15)L[Hyp]W[Dab](X15)[Trp(1-CH2COOH)][NMeNle][NMeNle]LCG-NH2; thioether N-14; N-terminus assumed)	0.7 nM	
CCCC[C@H]1C(=O)N(C)[C@@H](CCCC)C(=O)N[C@@H](CC(C)C)C(=O)N[C@H](C(=O)NCC(N)=O)CSCC(=O)N[C@@H](Cc2ccc(O)cc2)C(=O)N(C)[C@@H](C)C(=O)N[C@@H](CC(N)=O)C(=O)N2CCC[C@H]2C(=O)N[C@H]2CNc3c(c(=O)c3=O)NCC[C@H](NC(=O)[C@H](Cc3c[nH]c4ccccc34)NC(=O)[C@@H]3C[C@@H](O)CN3C(=O)[C@H](CC(C)C)NC2=O)C(=O)N[C@@H](Cc2cn(CC(=O)N(CCCCNC(=O)CC[C@@H](C)[C@@H]3CC[C@H]4[C@@H]5[C@H](O)C[C@@H]6C[C@H](O)CC[C@]6(C)[C@H]5C[C@H](O)[C@@]43C)CCCNC(=O)CC[C@@H](C)[C@H]3CC[C@H]4[C@@H]5[C@H](O)C[C@@H]6C[C@H](O)CC[C@]6(C)[C@H]5C[C@H](O)[C@]34C)c3ccccc23)C(=O)N1C [Example 6001] ({CH2CO}-Y[NMeA]NP[Dap]L[Hyp]W[Dab][Trp(1-CH2CO)](X2)[NMeNle][NMeNle]LCG-NH2; linker 5-9 via X12; thioether N-14)	850 nM	
CCCC[C@H]1C(=O)N(C)[C@@H](CCCC)C(=O)N[C@@H](CC(C)C)C(=O)N[C@H](C(=O)NCC(N)=O)CSCC(=O)N[C@@H](Cc2ccc(O)cc2)C(=O)N(C)[C@@H](C)C(=O)N[C@@H](CC(N)=O)C(=O)N2CCC[C@H]2C(=O)N[C@@H](CNC(=O)CC[C@@H](C)[C@H]2CC[C@H]3[C@@H]4[C@H](O)C[C@@H]5C[C@H](O)CC[C@]5(C)[C@H]4C[C@H](O)[C@]23C)C(=O)N[C@@H](CC(C)C)C(=O)N2C[C@H](O)C[C@H]2C(=O)N[C@@H](Cc2c[nH]c3ccccc23)C(=O)N[C@@H](CCNC(=O)CC[C@@H](C)[C@H]2CC[C@H]3[C@@H]4[C@H](O)C[C@@H]5C[C@H](O)CC[C@]5(C)[C@H]4C[C@H](O)[C@]23C)C(=O)N[C@@H](Cc2cn(CC(=O)N(CCCCNC(=O)CC[C@@H](C)[C@@H]3CC[C@H]4[C@@H]5[C@H](O)C[C@@H]6C[C@H](O)CC[C@]6(C)[C@H]5C[C@H](O)[C@@]43C)CCCNC(=O)CC[C@@H](C)[C@H]3CC[C@H]4[C@@H]5[C@H](O)C[C@@H]6C[C@H](O)CC[C@]6(C)[C@H]5C[C@H](O)[C@]34C)c3ccccc23)C(=O)N1C [Example 7001] ({CH2CO}-Y[NMeA]NP[Dap](Cholyl)L[Hyp]W[Dab](Cholyl)[Trp(1-CH2CO)](X2)[NMeNle][NMeNle]LCG-NH2; thioether N-14)	2 nM	
